In publication PMC5578999, “Novel quinolone chalcones targeting colchicine-binding pocket kill multidrug-resistant cancer cells by inhibiting tubulin activity and MRP1 function” (Scientific Reports, 2017):

Assays:
Experiment in all cases: NCI-60 SRB screen
Format in all cases: cell-based
[1] = test system: SW-620
[2] = test system: HOP-62
[3] = test system: A498
[4] = test system: SF-295
[5] = test system: IGROV1
[6] = test system: HT29
[7] = test system: SF-539
[8] = test system: SNB-19
[9] = test system: OVCAR-3
[10] = test system: MDA-MB-435
[11] = test system: MDA-MB-231/ATCC
[12] = test system: KM12
[13] = Homo sapiens, read-out: LC50 (the source's name)

## COc1ccc2[nH]c(=O)c(/C=C/C(=O)c3ccccc3OC)cc2c1 [CTR-20, (E)-6-Methoxy-3-(3-(2-methoxyphenyl)-3-oxoprop-1-enyl) quinolin-2(1H)-one]
[1]
  Log10GI50: -6.47 Molar
  Log10LC50: -4.31 Molar
  Log10TGI: -5.65 Molar
  TGI: 2.24E-6 Molar
[1]; 1.00E-5 Molar
  Growth Percent: 8.40%
[1]; Homo sapiens
  GI50: 335 nM
  LC50 (50% lethal concentration): 49400 nM
[1]; Log10 Concentration -4.0
  Percent Growth: -58%
[1]; Log10 Concentration -5.0
  Percent Growth: -31%
[1]; Log10 Concentration -6.0
  Percent Growth: 17%
[1]; Log10 Concentration -7.0
  Percent Growth: 87%
[1]; Log10 Concentration -8.0
  Percent Growth: 98%
[2]
  Log10GI50: -5.91 Molar
  Log10LC50: -4.63 Molar
  Log10TGI: -5.27 Molar
  TGI: 5.32E-6 Molar
[2]; 1.00E-5 Molar
  Growth Percent: 8.67%
[2]; Homo sapiens
  GI50: 1240 nM
  LC50: 23700 nM
[2]; Log10 Concentration -4.0
  Percent Growth: -97%
[2]; Log10 Concentration -5.0
  Percent Growth: -22%
[2]; Log10 Concentration -6.0
  Percent Growth: 58%
[2]; Log10 Concentration -7.0
  Percent Growth: 95%
[2]; Log10 Concentration -8.0
  Percent Growth: 89%
[3]
  Log10GI50: -6.18 Molar
  Log10LC50: -4.63 Molar
  Log10TGI: -5.34 Molar
  TGI: 4.55E-6 Molar
[3]; 1.00E-5 Molar
  Growth Percent: 21.71%
[3]; Homo sapiens
  GI50: 656 nM
[3]; [13]
  CC50: 23600 nM
[3]; Log10 Concentration -4.0
  Percent Growth: -100%
[3]; Log10 Concentration -5.0
  Percent Growth: -20%
[3]; Log10 Concentration -6.0
  Percent Growth: 39%
[3]; Log10 Concentration -7.0
  Percent Growth: 99%
[3]; Log10 Concentration -8.0
  Percent Growth: 97%
[4]
  Log10GI50: -6.28 Molar
  Log10LC50: -4.42 Molar
  Log10TGI: -4.92 Molar
  TGI: 1.21E-5 Molar
[4]; 1.00E-5 Molar
  Growth Percent: 8.29%
[4]; Homo sapiens
  GI50: 529 nM
[4]; [13]
  CC50: 37600 nM
[4]; Log10 Concentration -4.0
  Percent Growth: -93%
[4]; Log10 Concentration -5.0
  Percent Growth: 8%
[4]; Log10 Concentration -6.0
  Percent Growth: 33%
[4]; Log10 Concentration -7.0
  Percent Growth: 93%
[4]; Log10 Concentration -8.0
  Percent Growth: 89%
[5]
  Log10GI50: -6.24 Molar
  Log10LC50: > -4.00 Molar
  Log10TGI: -4.77 Molar
  TGI: 1.70E-5 Molar
[5]; 1.00E-5 Molar
  Growth Percent: 14.55%
[5]; Homo sapiens, IGROV-1
  GI50: 582 nM
[5]; Homo sapiens, IGROV-1, read-out: LC50 (the source's name)
  CC50: > 100000 nM
[5]; Log10 Concentration -4.0
  Percent Growth: -27%
[5]; Log10 Concentration -5.0
  Percent Growth: 8%
[5]; Log10 Concentration -6.0
  Percent Growth: 40%
[5]; Log10 Concentration -7.0
  Percent Growth: 82%
[5]; Log10 Concentration -8.0
  Percent Growth: 99%
[6]
  Log10GI50: -6.53 Molar
  Log10LC50: -4.63 Molar
  Log10TGI: -5.86 Molar
  TGI: 1.37E-6 Molar
[6]; 1.00E-5 Molar
  Growth Percent: 7.17%
[6]; Homo sapiens, HT-29
  GI50: 293 nM
  LC50: 23700 nM
[6]; Log10 Concentration -4.0
  Percent Growth: -73%
[6]; Log10 Concentration -5.0
  Percent Growth: -36%
[6]; Log10 Concentration -6.0
  Percent Growth: 6%
[6]; Log10 Concentration -7.0
  Percent Growth: 89%
[6]; Log10 Concentration -8.0
  Percent Growth: 98%
[7]
  Log10GI50: -6.35 Molar
  Log10LC50: -4.87 Molar
  Log10TGI: -5.60 Molar
  TGI: 2.49E-6 Molar
[7]; 1.00E-5 Molar
  Growth Percent: -10.00%
[7]; Homo sapiens
  GI50: 443 nM
  LC50 (concentration killing 50% of starting cells): 13400 nM
[7]; Log10 Concentration -4.0
  Percent Growth: -99%
[7]; Log10 Concentration -5.0
  Percent Growth: -43%
[7]; Log10 Concentration -6.0
  Percent Growth: 28%
[7]; Log10 Concentration -7.0
  Percent Growth: 90%
[7]; Log10 Concentration -8.0
  Percent Growth: 90%
[8]
  Log10GI50: -6.44 Molar
  Log10LC50: -5.05 Molar
  Log10TGI: -5.75 Molar
  TGI: 1.79E-6 Molar
[8]; 1.00E-5 Molar
  Growth Percent: 17.04%
[8]; Homo sapiens
  GI50: 362 nM
[8]; [13]
  CC50: 8880 nM
[8]; Log10 Concentration -4.0
  Percent Growth: -89%
[8]; Log10 Concentration -5.0
  Percent Growth: -54%
[8]; Log10 Concentration -6.0
  Percent Growth: 18%
[8]; Log10 Concentration -7.0
  Percent Growth: 90%
[8]; Log10 Concentration -8.0
  Percent Growth: 98%
[9]
  Log10GI50: -6.44 Molar
  Log10LC50: -5.03 Molar
  Log10TGI: -5.78 Molar
  TGI: 1.64E-6 Molar
[9]; 1.00E-5 Molar
  Growth Percent: 8.25%
[9]; Homo sapiens
  GI50: 359 nM
[9]; [13]
  CC50: 9330 nM
[9]; Log10 Concentration -4.0
  Percent Growth: -96%
[9]; Log10 Concentration -5.0
  Percent Growth: -52%
[9]; Log10 Concentration -6.0
  Percent Growth: 14%
[9]; Log10 Concentration -7.0
  Percent Growth: 95%
[9]; Log10 Concentration -8.0
  Percent Growth: 102%
[10]
  Log10GI50: -7.25 Molar
  Log10LC50: -4.66 Molar
  Log10TGI: -6.56 Molar
  TGI: 2.75E-7 Molar
[10]; 1.00E-5 Molar
  Growth Percent: -10.05%
[10]; Homo sapiens
  GI50: 56.4 nM
[10]; [13]
  CC50: 21900 nM
[10]; Log10 Concentration -4.0
  Percent Growth: -97%
[10]; Log10 Concentration -5.0
  Percent Growth: -26%
[10]; Log10 Concentration -6.0
  Percent Growth: -46%
[10]; Log10 Concentration -7.0
  Percent Growth: 36%
[10]; Log10 Concentration -8.0
  Percent Growth: 92%
[11]
  Log10GI50: -5.84 Molar
  Log10LC50: -4.40 Molar
  Log10TGI: -4.96 Molar
  TGI: 1.10E-5 Molar
[11]; 1.00E-5 Molar
  Growth Percent: 0.32%
[11]; Homo sapiens
  GI50: 1440 nM
[11]; [13]
  CC50: 39600 nM
[11]; Log10 Concentration -4.0
  Percent Growth: -86%
[11]; Log10 Concentration -5.0
  Percent Growth: 4%
[11]; Log10 Concentration -6.0
  Percent Growth: 59%
[11]; Log10 Concentration -7.0
  Percent Growth: 102%
[11]; Log10 Concentration -8.0
  Percent Growth: 102%
[12]
  Log10GI50: -6.49 Molar
  Log10LC50: -5.23 Molar
  Log10TGI: -5.80 Molar
  TGI: 1.58E-6 Molar
[12]; 1.00E-5 Molar
  Growth Percent: 4.37%
[12]; Homo sapiens
  GI50: 321 nM
[12]; [13]
  CC50: 5890 nM
[12]; Log10 Concentration -4.0
  Percent Growth: -86%
[12]; Log10 Concentration -5.0
  Percent Growth: -70%
[12]; Log10 Concentration -6.0
  Percent Growth: 17%
[12]; Log10 Concentration -7.0
  Percent Growth: 84%
[12]; Log10 Concentration -8.0
  Percent Growth: 99%
